Experimental data: patent US20140357713A1, “ANTIMICROBIAL COMPOUNDS AND METHODS OF USE” (NexMed Holdings, Inc., priority 2012, published 2014)
Read-outs that look alike come from different tables or passages of the source.

Experiments:
Assay in all cases: MIC assay with different strains, Example 35
Format in all cases: cell-based
[1] = system: Escherichia coli (ATCC 11229)
Description: (§1) The minimum inhibitory concentration (MIC) is used to determine the lowest concentration of a test product claiming antimicrobial effects that will inhibit growth of a microorganism. Each microbial suspension was adjusted approximately 10^7 to 10^8 colony forming units (CFU) per mL and labeled as the stock suspension. The stock suspension was further diluted to 1:200 in Mueller Hinton broth to obtain a test sample having a concentration of […]. The test sample was then tested for MIC as described in M202.R02. After incubation, each tube was examined for turbidity, which indicated growth or no growth. For the tubes where the product rendered the media turbid, an aliquot of the media was streaked onto agar plates to confirm growth or lack of growth.

[2] = system: Staphylococcus saprophyticus (ATCC 15305)
Description: as §1

[3] = system: Staphylococcus hominis (ATCC 27844)
Description: as §1

[4] = system: Staphylococcus aureus (MRSA) (ATCC 33592)
Description: as §1

[5] = system: Proteus mirabilis (ATCC 7002)
Description: as §1

[6] = system: Streptococcus pyogenes (ATCC 19615)
Description: as §1

[7] = system: Serratia marcescens (ATCC 14756)
Description: as §1

[8] = system: Corynebacterium jeikeium (ATCC 43734)
Description: as §1

[9] = system: Staphylococcus haemolyticus (ATCC 29970)
Description: as §1

[10] = system: Bacillus subtilis (ATCC 6633)
Description: as §1

[11] = system: Candida albicans (ATCC 10231)
Description: as §1

[12] = system: Streptococcus pneumonia (ATCC 6303)
Description: as §1

[13] = system: Pseudomonas aeruginosa (ATCC 9027)
Description: as §1

[14] = system: Enterococcus faecalis (ATCC 19433)
Description: as §1

[15] = system: Haemophilus influenza (ATCC 19418)
Description: as §1

[16] = system: Klebsiella pneumonia (ATCC 11296)
Description: as §1

CCCCCCCCCCCCOC(=O)C(C)NC.Cl (centres unmarked) [Nex-59, Dodecyl 2-(methylamino)propanoate hydrochloride]
MIC ([1]; Escherichia coli, ATCC11229, Table 19 summary, read-out: MIC): 800 µg/mL | MIC ([1]; Example 35): 0.08% | Growth/no growth ([1]; Sample Concentration 0.01%): Growth | Growth/no growth ([1]; Sample Concentration 0.02%): Growth | Growth/no growth ([1]; Sample Concentration 0.04%): Growth | MIC ([2]; Example 35): 0.02% | Growth/no growth ([2]; Sample Concentration 0.01%): Growth | Growth/no growth ([2]; Sample Concentration 0.02%): No | Growth/no growth ([2]; Sample Concentration 0.04%): No | Growth/no growth ([2]; Sample Concentration 0.08%): No | Growth/no growth ([2]; Sample Concentration 0.16%): No | Growth/no growth ([2]; Sample Concentration 0.32%): No | Growth/no growth ([2]; Sample Concentration 0.63%): No | Growth/no growth ([2]; Sample Concentration 1.25%): No | Growth/no growth ([2]; Sample Concentration 2.5%): No | MIC ([2]; Staphylococcus saprophyticus, ATCC15305, Table 19 summary, read-out: MIC): 200 µg/mL | MIC ([3]; Example 35): 0.02% | Growth/no growth ([3]; Sample Concentration 0.01%): Growth | Growth/no growth ([3]; Sample Concentration 0.02%): No | Growth/no growth ([3]; Sample Concentration 0.04%): No | Growth/no growth ([3]; Sample Concentration 0.08%): No | Growth/no growth ([3]; Sample Concentration 0.16%): No | Growth/no growth ([3]; Sample Concentration 0.32%): No | Growth/no growth ([3]; Sample Concentration 0.63%): No | Growth/no growth ([3]; Sample Concentration 1.25%): No | Growth/no growth ([3]; Sample Concentration 2.5%): No | MIC ([3]; Staphylococcus hominis, ATCC27844, Table 19 summary, read-out: MIC): 200 µg/mL | MIC ([4]; Example 35): 0.02% | Growth/no growth ([4]; Sample Concentration 0.01%): Growth | Growth/no growth ([4]; Sample Concentration 0.02%): No | Growth/no growth ([4]; Sample Concentration 0.04%): No | Growth/no growth ([4]; Sample Concentration 0.08%): No | Growth/no growth ([4]; Sample Concentration 0.16%): No | Growth/no growth ([4]; Sample Concentration 0.32%): No | Growth/no growth ([4]; Sample Concentration 0.63%): No | Growth/no growth ([4]; Sample Concentration 1.25%): No | Growth/no growth ([4]; Sample Concentration 2.5%): No | MIC ([4]; Staphylococcus aureus, Table 19 summary, read-out: MIC): 200 µg/mL | MIC ([5]; Example 35): 0.32% | MIC ([5]; Proteus mirabilis, ATCC7002, Table 19 summary, read-out: MIC): 3200 µg/mL | Growth/no growth ([5]; Sample Concentration 0.01%): Growth | Growth/no growth ([5]; Sample Concentration 0.02%): Growth | Growth/no growth ([5]; Sample Concentration 0.04%): Growth | Growth/no growth ([5]; Sample Concentration 0.08%): Growth | Growth/no growth ([5]; Sample Concentration 0.16%): Growth | MIC ([6]; Example 35): ≦0.01% | Growth/no growth ([6]; Sample Concentration 0.01%): No | Growth/no growth ([6]; Sample Concentration 0.02%): No | Growth/no growth ([6]; Sample Concentration 0.04%): No | Growth/no growth ([6]; Sample Concentration 0.08%): No | Growth/no growth ([6]; Sample Concentration 0.16%): No | Growth/no growth ([6]; Sample Concentration 0.32%): No | Growth/no growth ([6]; Sample Concentration 0.63%): No | Growth/no growth ([6]; Sample Concentration 1.25%): No | Growth/no growth ([6]; Sample Concentration 2.5%): No | MIC ([6]; Streptococcus pyogenes, ATCC19615, Table 19 summary, read-out: MIC): 100 µg/mL | MIC ([7]; Example 35): >2.5% | Growth/no growth ([7]; Sample Concentration 0.01%): Growth | Growth/no growth ([7]; Sample Concentration 0.02%): Growth | Growth/no growth ([7]; Sample Concentration 0.04%): Growth | Growth/no growth ([7]; Sample Concentration 0.08%): Growth | Growth/no growth ([7]; Sample Concentration 0.16%): Growth | Growth/no growth ([7]; Sample Concentration 0.32%): Growth | Growth/no growth ([7]; Sample Concentration 0.63%): Growth | Growth/no growth ([7]; Sample Concentration 1.25%): Growth | Growth/no growth ([7]; Sample Concentration 2.5%): Growth | MIC ([7]; Serratia marcescens, ATCC14756, Table 19 summary, read-out: MIC): > 25000 µg/mL | MIC ([8]; Corynebacterium jeikeium, ATCC43734, Table 19 summary, read-out: MIC): ≥ 100 µg/mL | MIC ([8]; Example 35): ≦0.01% | Growth/no growth ([8]; Sample Concentration 0.01%): No | Growth/no growth ([8]; Sample Concentration 0.02%): No | Growth/no growth ([8]; Sample Concentration 0.04%): No | Growth/no growth ([8]; Sample Concentration 0.08%): No | Growth/no growth ([8]; Sample Concentration 0.16%): No | Growth/no growth ([8]; Sample Concentration 0.32%): No | Growth/no growth ([8]; Sample Concentration 0.63%): No | Growth/no growth ([8]; Sample Concentration 1.25%): No | Growth/no growth ([8]; Sample Concentration 2.5%): No | MIC ([9]; Example 35): 0.02% | Growth/no growth ([9]; Sample Concentration 0.01%): Growth | Growth/no growth ([9]; Sample Concentration 0.02%): No | Growth/no growth ([9]; Sample Concentration 0.04%): No | Growth/no growth ([9]; Sample Concentration 0.08%): No | Growth/no growth ([9]; Sample Concentration 0.16%): No | Growth/no growth ([9]; Sample Concentration 0.32%): No | Growth/no growth ([9]; Sample Concentration 0.63%): No | Growth/no growth ([9]; Sample Concentration 1.25%): No | Growth/no growth ([9]; Sample Concentration 2.5%): No | MIC ([9]; Staphylococcus haemolyticus, ATCC29970, Table 19 summary, read-out: MIC): 200 µg/mL | MIC ([10]; Bacillus subtilis, ATCC6633, Table 19 summary, read-out: MIC): 400 µg/mL | MIC ([10]; Example 35): 0.04% | Growth/no growth ([10]; Sample Concentration 0.01%): Growth | Growth/no growth ([10]; Sample Concentration 0.02%): Growth | MIC ([11]; Candida albicans, ATCC10231, Table 19 summary, read-out: MIC): 400 µg/mL | MIC ([11]; Example 35): 0.04% | Growth/no growth ([11]; Sample Concentration 0.01%): Growth | Growth/no growth ([11]; Sample Concentration 0.02%): Growth | MIC ([12]; Example 35): 0.32% | Growth/no growth ([12]; Sample Concentration 0.01%): Growth | Growth/no growth ([12]; Sample Concentration 0.02%): Growth | Growth/no growth ([12]; Sample Concentration 0.04%): Growth | Growth/no growth ([12]; Sample Concentration 0.08%): Growth | Growth/no growth ([12]; Sample Concentration 0.16%): Growth | MIC ([12]; Streptococcus pneumoniae, ATCC6303, Table 19 summary, read-out: MIC): 3200 µg/mL | MIC ([13]; Example 35): 0.16% | MIC ([13]; Pseudomonas aeruginosa, ATCC9027, Table 19 summary, read-out: MIC): 1600 µg/mL | Growth/no growth ([13]; Sample Concentration 0.01%): Growth | Growth/no growth ([13]; Sample Concentration 0.02%): Growth | Growth/no growth ([13]; Sample Concentration 0.04%): Growth | Growth/no growth ([13]; Sample Concentration 0.08%): Growth | MIC ([14]; Enterococcus faecalis, ATCC19433, Table 19 summary, read-out: MIC): ≥ 100 µg/mL | MIC ([14]; Example 35): ≦0.01% | Growth/no growth ([14]; Sample Concentration 0.01%): No | Growth/no growth ([14]; Sample Concentration 0.02%): No | Growth/no growth ([14]; Sample Concentration 0.04%): No | Growth/no growth ([14]; Sample Concentration 0.08%): No | Growth/no growth ([14]; Sample Concentration 0.16%): No | Growth/no growth ([14]; Sample Concentration 0.32%): No | Growth/no growth ([14]; Sample Concentration 0.63%): No | Growth/no growth ([14]; Sample Concentration 1.25%): No | Growth/no growth ([14]; Sample Concentration 2.5%): No | MIC ([15]; Example 35): ≦0.01% | MIC ([15]; Haemophilus, ATCC19418): ≥ 100 µg/mL | Growth/no growth ([15]; Sample Concentration 0.01%): No | Growth/no growth ([15]; Sample Concentration 0.02%): No | Growth/no growth ([15]; Sample Concentration 0.04%): No | Growth/no growth ([15]; Sample Concentration 0.08%): No | Growth/no growth ([15]; Sample Concentration 0.16%): No | Growth/no growth ([15]; Sample Concentration 0.32%): No | Growth/no growth ([15]; Sample Concentration 0.63%): No | Growth/no growth ([15]; Sample Concentration 1.25%): No | Growth/no growth ([15]; Sample Concentration 2.5%): No | MIC ([16]; Example 35): 0.08% | MIC ([16]; Klebsiella pneumoniae, ATCC11296, Table 19 summary, read-out: MIC): 800 µg/mL | Growth/no growth ([16]; Sample Concentration 0.01%): Growth | Growth/no growth ([16]; Sample Concentration 0.02%): Growth | Growth/no growth ([16]; Sample Concentration 0.04%): Growth | Growth/no growth ([16]; Sample Concentration 0.08%): No | Growth/no growth ([16]; Sample Concentration 0.16%): No | Growth/no growth ([16]; Sample Concentration 0.32%): No | Growth/no growth ([16]; Sample Concentration 0.63%): No | Growth/no growth ([16]; Sample Concentration 1.25%): No | Growth/no growth ([16]; Sample Concentration 2.5%): No
